Patent US10131652B2, “Pyrimidinyloxy benzene derivatives as herbicides” (E. I. DU PONT DE NEMOURS AND COMPANY, priority 2014, dated 2018)

Tests used:
Type in all cases: in vivo
[1] = tested on: barnyardgrass (Echinochloa crus-galli); assay: Test B pre-/postemergence plant response
Outline: (§1)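 Evaluation is visual, about 10 days after application, rating injury from 0 (none) to 100 (complete control) relative to untreated controls. Application was a preemergence soil spray on seeded pots or a postemergence spray on one- to two-leaf plants.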

corn (Zea mays) = assay: Test B pre-/postemergence plant response
Outline: as §1

[2] = tested on: Italian ryegrass (Lolium multiflorum); assay: Test B pre-/postemergence plant response
Outline: as §1

[3] = tested on: giant foxtail (Setaria faberii); assay: Test B pre-/postemergence plant response
Outline: as §1

kochia (Kochia scoparia) = assay: Test B pre-/postemergence plant response
Outline: as §1

[4] = tested on: pigweed (Amaranthus retroflexus); assay: Test B pre-/postemergence plant response
Outline: as §1

[5] = tested on: ragweed (common ragweed, Ambrosia elatior); assay: Test B pre-/postemergence plant response
Outline: as §1

[6] = tested on: wheat (Triticum aestivum); assay: Test B pre-/postemergence plant response
Outline: as §1

[7] = tested on: blackgrass (Alopecurus myosuroides); assay: Test B postemergence plant response
Outline: (§2)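 Values are visual control ratings (0 to 100) recorded approximately 10 days after postemergence application to greenhouse-grown plants of 2 to 10 cm, one- to two-leaf stage, each judged against untreated controls.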

[8] = tested on: galium (catchweed bedstraw, Galium aparine); assay: Test B postemergence plant response
Outline: as §2

[9] = tested on: barnyardgrass (Echinochloa crus-galli); assay: Test C flooded paddy test plant response; conditions: Flood, 250 g ai/ha; scale of 0 to 100 where 0 is no effect and 100 is complete control; 13 to 15 days
Outline: (§3)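 Flooded-pot format, 3 cm water over soil maintained for the test duration; test compounds dispensed into the water at the 2-leaf stage. Greenhouse holding 13 to 15 days. Plants evaluated visually relative to untreated controls, 0 meaning no effect and 100 complete control.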

[10] = tested on: small-flower umbrella sedge (Cyperus difformis); assay: Test C flooded paddy test plant response; conditions: Flood, 250 g ai/ha; scale of 0 to 100 where 0 is no effect and 100 is complete control; 13 to 15 days
Outline: as §3

[11] = tested on: ducksalad (Heteranthera limosa); assay: Test C flooded paddy test plant response; conditions: Flood, 250 g ai/ha; scale of 0 to 100 where 0 is no effect and 100 is complete control; 13 to 15 days
Outline: as §3

rice (Oryza sativa) = assay: Test C flooded paddy test plant response; conditions: Flood, 250 g ai/ha; scale of 0 to 100 where 0 is no effect and 100 is complete control; 13 to 15 days
Outline: as §3

[12] = 125 g ai/ha, postemergence, 0 to 100 scale, 0 no effect, 100 complete control
[13] = Postemergence, 500 g ai/ha, 0 to 100 scale (0 no effect, 100 complete control)
[14] = Preemergence, 125 g ai/ha, 0 to 100 scale (0 no effect, 100 complete control)
[15] = Preemergence, 500 g ai/ha, 0 to 100 scale where 0 is no effect and 100 is complete control
[16] = 31 g ai/ha, Postemergence, 0 to 100 scale, 0 no effect, 100 complete control
[17] = 31 g ai/ha, Preemergence, 0 to 100 scale where 0 is no effect and 100 is complete control

SMILES	Plant response rating, Barnyardgrass [1, 12]	Barnyardgrass plant response rating [1, 14]	Plant response rating, Corn (corn (Zea mays); [12])	Plant response rating, Ryegrass, Italian [2, 12]	Ryegrass, Italian plant response rating [2, 14]	Plant response rating, Foxtail, Giant [3, 12]	Foxtail, Giant plant response rating [3, 14]	Plant response rating, Kochia (kochia (Kochia scoparia); [12])	Kochia plant response rating (kochia (Kochia scoparia); [14])	Plant response rating, Pigweed [4, 12]	Pigweed plant response rating [4, 14]	Plant response rating, Ragweed [5, 12]	Ragweed plant response rating [5, 14]	Plant response rating, Wheat [6, 12]	Plant response rating, Blackgrass [7, 12]	Plant response rating, Galium [8, 12]	Barnyardgrass plant response rating [9]	Sedge, Umbrella plant response rating [10]	Ducksalad plant response rating [11]	Rice plant response rating (rice (Oryza sativa))	other results
FC(F)(F)c1csc(-c2ccccc2Oc2ncc(I)cn2)n1 [Compound 138]	0	0	0	0	0	0	0	0	0	0	0	0	0	0	0	0	0	0	20	0	Plant response rating, Barnyardgrass [1, 13]: 0; Plant response rating, Barnyardgrass [1, 15]: 0; Plant response rating, Corn (corn (Zea mays); [13]): 0; Plant response rating, Ryegrass, Italian [2, 13]: 0; Plant response rating, Ryegrass, Italian [2, 15]: 0; Plant response rating, Foxtail, Giant [3, 13]: 0; Plant response rating, Foxtail, Giant [3, 15]: 0; Plant response rating, Kochia (kochia (Kochia scoparia); [13]): 0; Plant response rating, Kochia (kochia (Kochia scoparia); [15]): 0; Plant response rating, Pigweed [4, 13]: 0; Plant response rating, Pigweed [4, 15]: 0; Plant response rating, Ragweed [5, 13]: 0; Plant response rating, Ragweed [5, 15]: 0; Plant response rating, Wheat [6, 13]: 0; Plant response rating, Blackgrass [7, 13]: 0; Plant response rating, Galium [8, 13]: 0
FC(F)(F)c1csc(-c2ccccc2Oc2ncc(Br)cn2)n1 [Compound 139]	0	0	0	0	0	0	0	0	0	0	0	0	0	0	0	0	0	0	30	20	Plant response rating, Barnyardgrass [1, 13]: 0; Plant response rating, Barnyardgrass [1, 15]: 0; Plant response rating, Corn (corn (Zea mays); [13]): 0; Plant response rating, Ryegrass, Italian [2, 13]: 0; Plant response rating, Ryegrass, Italian [2, 15]: 0; Plant response rating, Foxtail, Giant [3, 13]: 0; Plant response rating, Foxtail, Giant [3, 15]: 0; Plant response rating, Kochia (kochia (Kochia scoparia); [13]): 0; Plant response rating, Kochia (kochia (Kochia scoparia); [15]): 0; Plant response rating, Pigweed [4, 13]: 0; Plant response rating, Pigweed [4, 15]: 0; Plant response rating, Ragweed [5, 13]: 0; Plant response rating, Ragweed [5, 15]: 0; Plant response rating, Wheat [6, 13]: 0; Plant response rating, Blackgrass [7, 13]: 0; Plant response rating, Galium [8, 13]: 0
O=Cc1cc(-c2ccccc2Oc2ncc(Cl)cn2)co1 [Compound 140]	0	0	0	0	0	0	0	0	0	0	0	0	0	0	0	0	0	0	0	0	Plant response rating, Barnyardgrass [1, 16]: 0; Plant response rating, Barnyardgrass [1, 17]: 0; Plant response rating, Corn (corn (Zea mays); [16]): 0; Plant response rating, Ryegrass, Italian [2, 17]: 0; Plant response rating, Foxtail, Giant [3, 16]: 0; Plant response rating, Foxtail, Giant [3, 17]: 0; Plant response rating, Kochia (kochia (Kochia scoparia); [17]): 0; Plant response rating, Pigweed [4, 17]: 0; Plant response rating, Ragweed [5, 17]: 0; Plant response rating, Blackgrass [7, 16]: 0
FC(F)c1cc(-c2ccccc2Oc2ncc(Cl)cn2)co1 [Compound 141]	0	0	30	0	0	0	0	0	0	20	0	0	0	0	0	0	0	0	30	0	Plant response rating, Barnyardgrass [1, 16]: 0; Plant response rating, Barnyardgrass [1, 17]: 0; Plant response rating, Corn (corn (Zea mays); [16]): 0; Plant response rating, Ryegrass, Italian [2, 17]: 0; Plant response rating, Foxtail, Giant [3, 16]: 0; Plant response rating, Foxtail, Giant [3, 17]: 0; Plant response rating, Kochia (kochia (Kochia scoparia); [17]): 0; Plant response rating, Pigweed [4, 17]: 0; Plant response rating, Ragweed [5, 17]: 0; Plant response rating, Blackgrass [7, 16]: 0
